Assay results taken from patent US20160081936A1 (MURRAY AND POOLE ENTERPRISES LIMITED, priority 2013, published 2016).

Assays:
[1] = test system: patients with a first episode of acute pericarditis; conditions: conventional treatment with aspirin, or the same plus colchicine 0.5 to 1.0 mg/day for 3 months; p=0.004; cited from earlier work
[2] = test system: patients with a first episode of recurrent pericarditis; conditions: conventional treatment with aspirin alone, or the same plus colchicine 0.5-1.0 mg/d for 6 months; cited from earlier work
[3] = test system: patients with stable coronary disease; conditions: 0.5 mg/day in addition to statins and other standard secondary prevention therapies; Nidorf et al., JACC 2013; cited from earlier work
[4] = test system: patients with stable coronary disease; experiment: LoDoCo trial: colchicine 0.5 mg/day added to standard secondary prevention therapy; type: in vivo, human
Description: This study is described in PCT/AU2013/001261 and is hereby incorporated in its entirety by reference.
All outcomes were evaluated by an experienced adjudicator blinded to the treatment allocation.
Patients with a history of bypass surgery were only eligible if they had undergone bypass surgery more than 10 years before, or had angiographic evidence of graft failure or had undergone stenting since their bypass surgery. All patients signed informed consent before randomization.
The randomization sequence was computer generated, kept concealed from the investigators at all times and was managed by a research assistant who had no involvement in the evaluation or management of study patients. […] Patients who were intolerant to therapy remained in the study, and were followed in the usual manner and included in the primary intention to treat analysis.
The drug was dispensed by their usual chemist, and if requested, patients were reimbursed for the cost of these scripts. All other treatments were continued as usual.
Patient compliance with treatment and outcome data were collected at routine follow up visits and at the time of any unplanned hospital admission. An acute coronary syndrome (ACS) was defined as either (a) Acute Myocardial Infarction (AMI), as evidenced by acute ischemic chest pain associated with a rise in serum troponin above the upper limit of normal or (b) Unstable Angina (UA), as evidenced by a recent acceleration of the patient's angina unassociated with a rise in serum troponin but associated with angiographic evidence of a change in the patient's coronary anatomy. (Unstable Angina Braunwald classification types IB and IIB). The ACS was characterized as being stent-related if there was evidence of significant in-stent stenosis or acute stent thrombosis. Out of Hospital Cardiac Arrest was defined as either a sudden death as evidenced on the patient's death certificate, or a non-fatal out of hospital cardiac arrest, defined as a recovery from sudden collapse associated with documented asystole, ventricular tachycardia or ventricular fibrillation. Noncardioembolic ischemic stroke was defined as CT or MRI proven ischemic stroke adjudged by the treating neurologist as not being due to atrial fibrillation or intracranial hemorrhage.
The primary efficacy outcome was the composite, ACS, fatal or non-fatal out of hospital cardiac arrest or non-cardio-embolic ischemic stroke. Secondary outcomes were (a) individual components of the primary outcome, and (b) the components of ACS unrelated to stent disease.
The pre-specified study duration was a minimum follow up of two years in all patients. Accordingly the study was closed on May 31, 2012. During May, all living patients were contacted by phone to collect compliance and outcome data from the last date of follow-up.
Summary statistics, including mean and standard deviation were calculated for all baseline characteristics by treatment arm. All time to event outcomes were calculated in days by subtracting the date of randomization from either: (1) the date of event or death; or (2) the trial termination date for those patients not experiencing the defined event. As pre-specified, the primary efficacy analysis was based on the intention-to-treat principle. The intention-to-treat analysis included all randomized subjects and all events during the time from randomization to the trial termination. Trial termination date was fixed as May 31, 2012. A secondary pre-specified on-treatment analysis was also performed, based on patients who were both tolerant and compliant to therapy beyond the first month of randomization.
The time-to-first-event for all outcomes is presented using a Kaplan-Meier plot. […] The secondary outcomes were analysed similarly.

Row | SMILES | recurrence rate at 18 months [1] [%] | recurrence rate, actuarial rates at 18 months [2] [%] | prevention of cardiovascular events in patients with stable coronary disease [3] | deaths ([4]; colchicine group (282), all of non-cardiac causes, 10 in control group) [patients] | primary outcome, number needed to treat ([4]; intention to treat) | ACS unrelated to stent disease associated with UA, patients ([4]; intention to treat, 0.5 mg/day) [%] | ACS unrelated to stent disease associated with an AMI, patients ([4]; intention to treat, 0.5 mg/day) [%] | patients presenting with an ACS ([4]; intention to treat, 0.5 mg/day) [%] | patients presenting with an ACS unrelated to stent disease ([4]; intention to treat, 0.5 mg/day) [%] | primary outcome (composite of ACS, fatal or non-fatal out of hospital cardiac arrest or non-cardio-embolic ischemic stroke), patients with event ([4]; intention to treat, 0.5 mg/day, median follow up 36 months) [%] | events in patients compliant and tolerant to therapy beyond the first month ([4]; on-treatment analysis, 0.5 mg/day) [%] | out of hospital cardiac arrest and non-cardio-embolic ischemic stroke ([4]; treatment group vs control)
1 | CC(=O)Oc1ccccc1C(=O)O [aspirin] | 32.3 | 50.6 |  |  |  |  |  |  |  |  |  | 
2 | COc1cc2c(c(OC)c1OC)-c1ccc(OC)c(=O)cc1[C@@H](NC(C)=O)CC2 [colchicine, N[5,6,7,9-tetrahydro-1,2,3,10-tetratmethoxy 9-oxobenzo[a]heptalen-7-yl],(S)-acetamide] | 10.7 | 24.0 | appeared effective | 4 | 11 | 1.8 | 1.4 | 4.6 | 3.2 | 5.3 | 4.5 | reduced
